From patent US20210401931A1, “METHODS AND MATERIALS FOR TREATING CANCER” (Mayo Foundation for Medical Education and Research, priority 2018, published 2021)
Entries after “also recorded” stand apart in the source; their conditions may differ.

Assays:
[1] = tested on: PD-L1 mRNA; assay: PD-L1 mRNA expression by RT-qPCR in PC-3 cells treated with chemicals; type: cell-based, human; details: 24 hours; for PD-L1 mRNA expression: RT-qPCR; for palbociclib-induced elevation of PD-L1: co-treatment with palbociclib
Description: FIGS. 1A-K. RB suppresses PD-L1 mRNA expression. (A) PC-3 cell were treated with indicated chemicals for 24 hours. Cells were harvested for RT-qPCR. All data were shown as mean values±SD (n=3). * P<0.05, ** P<0.01, *** P<0.001. (B) PC-3 cells were infected with lentivirus expressing control or CDK4 and CDK6-specific shRNAS. 72 hours after infection, cells were harvested for RT-qPCR. All data were shown as mean values±SD (n=3). *** P<0.001. (C-F) PC-3 cells were infected with lentivirus expressing control or RB1-specific shRNAs. 48 hours after infection, PD-L1 protein levels were determined by western blotting (C), RT-qPCR (D), FACS (E), and IFC (F). All data were shown as mean values±SD (n=3). * P<0.05, ** P<0.01, *** P<0.001. (G) PD-L1 mRNA levels were determined by RT-qPCR in SKO and DKO mouse prostate tumor cells. All data were shown as mean values±SD (n=3). * P<0.05, ** P<0.01, *** P<0.001. (H-J) SKO (H), DKO (I), and Rb^−/−PrE (J) cells were treated with palbociclib for 24 hours. Cells were harvested for RT-qPCR. All data were shown as mean values±SD (n=3). * P<0.05, ** P<0.01, *** P<0.001. (K) The putative copy-number calls for RB1 were determined using GISTC 2.0, and the mRNA expression for CD274(PD-L1) was measured by log 2(RPKM), here RPKM stands for Reads Per Kilobase of transcript per Million mapped reads. […] The nonparametric Mann-Whitney U test was used for the statistical test.
FIGS. 8A-D. (A) PC-3, MIA PaCa-2, H1299, SK-Hep1, and PTEN-CaP8 cells were treated with different doses of palbociclib for 24 hours. Cells were harvested for RT-qPCR. All data were shown as mean values±SD (n=3). * P<0.05, ** P<0.01. (B) PC-3 cell were treated with indicated chemicals for 24 hours. Cells were harvested for RT-qPCR. All data were shown as mean values±SD (n=3). Ns, not significant, * P<0.05, ** P<0.01. (C, D) PC-3 cells were infected with lentivirus expressing control shRNA or RB1-specific shRNA. 24 hours after puromycin selection, cells were treated with or without Helenalin (2 μM) for 24 hours. Cells were harvested for western blotting analysis (C) and RT-qPCR (D). All data were shown as mean values±SD (n=3). Ns, not significant, *** P<0.001.
FIGS. 13A-F. (A, B) PC-3 cells were treated with or without gamma irradiation (IR) (12 Gy). 24 hours post treatment, cells were treated with or without Helenalin (2 μM). 24 hours after treatment, cells were harvested for western blotting analysis (A) and RT-qPCR analysis (B). All data were shown as mean values±SD (n=3). “ns”=not significant, *** P<0.001. (C) PTEN-CaP8 cells were infected with lentivirus expression Tsin control or Tsin-RL S249D/T252D peptide. 72 hours post infection, cell were harvested for western blotting analysis. (D, E) PTEN-CaP8 cells were infected with lentivirus expression Tsin control or Tsin-RL S249D/T252D peptide. 72 hours post infection, cells were treated with or without gamma irradiation (12 Gy) for 48 hours. Cells were harvested for MTS assay (D) and RT-qPCR (E). All data were shown as mean values±SD (n=3). “ns”=not significant, ** P<0.01; *** P<0.001. (F) Schematic diagram depicting the treatment plan for mice bearing subcutaneous PTEN-CaP8 tumors.
Total RNA was isolated using TRIzol reagent (Thermo Fisher Scientific). The NanoDrop 2000 spectrophotometer (Thermo Fisher Scientific) was used to assess RNA yield and quality. RNA was reversely transcribed using Superscript reverse transcriptase (Thermo Fisher Scientific) following manufacturer's instructions. Quantitative real-time PCR was performed by mixing cDNA, gene-specific primers, and IQ SYRB Green Supermix and detected by iCycler QTX detection system (Bio-Rad). The 2-ΔCt method was used to quantitate fold changes by normalizing to GAPDH. Primers for RT-qPCR are provided Table 4.

[2] = biological target: T1, retinoblastoma protein RB (endogenous) (human, UniProt P06400 2-928); assay: co-IP of endogenous proteins in PC-3 cells (FIGS. 2A and 18A)
T1 construct: Endogenous protein of cell lysates, phosphorylation state as in the cells; also called RB1; endogenous RB
T1 sequence (looked up): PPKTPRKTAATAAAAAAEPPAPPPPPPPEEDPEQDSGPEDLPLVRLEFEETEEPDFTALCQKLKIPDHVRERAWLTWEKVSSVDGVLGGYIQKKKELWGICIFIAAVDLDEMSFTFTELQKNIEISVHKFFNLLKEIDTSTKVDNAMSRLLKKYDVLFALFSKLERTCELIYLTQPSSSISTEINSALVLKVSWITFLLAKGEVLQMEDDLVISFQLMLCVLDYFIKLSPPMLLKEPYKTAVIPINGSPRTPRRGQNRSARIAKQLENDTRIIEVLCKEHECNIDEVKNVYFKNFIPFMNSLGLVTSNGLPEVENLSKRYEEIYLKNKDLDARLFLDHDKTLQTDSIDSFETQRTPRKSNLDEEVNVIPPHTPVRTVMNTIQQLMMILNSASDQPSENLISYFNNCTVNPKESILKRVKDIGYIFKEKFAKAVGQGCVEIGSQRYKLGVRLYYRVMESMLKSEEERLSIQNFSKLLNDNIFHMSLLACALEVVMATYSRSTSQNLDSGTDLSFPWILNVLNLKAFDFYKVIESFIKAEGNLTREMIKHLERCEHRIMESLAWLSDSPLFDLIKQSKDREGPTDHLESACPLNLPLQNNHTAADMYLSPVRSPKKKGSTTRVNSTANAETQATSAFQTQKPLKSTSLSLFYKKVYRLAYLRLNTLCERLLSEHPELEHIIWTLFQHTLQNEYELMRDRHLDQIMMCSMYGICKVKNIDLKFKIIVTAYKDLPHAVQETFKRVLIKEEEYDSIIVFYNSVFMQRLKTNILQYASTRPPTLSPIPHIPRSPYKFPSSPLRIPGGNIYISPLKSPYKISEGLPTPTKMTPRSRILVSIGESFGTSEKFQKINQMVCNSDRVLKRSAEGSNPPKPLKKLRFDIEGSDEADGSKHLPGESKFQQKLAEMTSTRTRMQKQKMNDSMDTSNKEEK

## CN1CC[C@H](c2c(O)cc(O)c3c(=O)cc(-c4ccccc4Cl)oc23)[C@H](O)C1 [flavopiridol]
[1]; PC-3 cells
  PD-L1 mRNA expression: dramatic downregulation
  palbociclib-induced elevation of PD-L1: completely abolished

## C=C1C(=O)O[C@@H]2C[C@@H](C)[C@@H]3C=CC(=O)[C@@]3(C)[C@@H](O)[C@H]12 [helenalin]
[1]; PC-3 cells with RB1 shRNA, Helenalin 2 μM
  RB knockdown-induced PD-L1 upregulation: completely blocked; also recorded: inhibited
[1]; PC-3 cells, 12 Gy, Helenalin 2 μM
  gamma irradiation-induced PD-L1 expression: abrogated
[1]; PC-3 cells
  PD-L1 mRNA expression: decreased
  palbociclib-induced elevation of PD-L1: completely abolished

## CC[C@H](CO)Nc1nc(NCc2ccccc2)c2ncn(C(C)C)c2n1 [roscovitine]
[1]; PC-3 cells
  PD-L1 mRNA expression: dramatic downregulation

## Cc1sc2c(c1C)C(c1ccc(Cl)cc1)=N[C@@H](CC(=O)OC(C)(C)C)c1nnc(C)n1-2 [JQ1]
[1]; PC-3 cells
  PD-L1 mRNA expression: dramatic downregulation

B1: p52 (other, human, UniProt Q00653 1-454, looked up)
chain: MESCYNPGLDGIIEYDDFKLNSSIVEPKEPAPETADGPYLVIVEQPKQRGFRFRYGCEGPSHGGLPGASSEKGRKTYPTVKICNYEGPAKIEVDLVTHSDPPRAHAHSLVGKQCSELGICAVSVGPKDMTAQFNNLGVLHVTKKNMMGTMIQKLQRQRLRSRPQGLTEAEQRELEQEAKELKKVMDLSIVRLRFSAFLRASDGSFSLPLKPVISQPIHDSKSPGASNLKISRMDKTAGSVRGGDEVYLLCDKVQKDDIEVRFYEDDENGWQAFGDFSPTDVHKQYAIVFRTPPYHKMKIERPVTVFLQLKRKRGGDVSDSKQFTYYPLVEDKEEVQRKRRKALPTFSQPFGGGSHMGGGSGGAAGGYGGAGGGGSLGFFPSSLAYSPYQSGAGPMGCYPGGGGGAQMAATVPSRDSGEEAAEPSAPSRTPQCEPQAPEMLQRAREYNARLFGLA
[2]
  binding result: no binding

B2: RelB (other, human, UniProt Q01201 1-579, looked up)
chain: MLRSGPASGPSVPTGRAMPSRRVARPPAAPELGALGSPDLSSLSLAVSRSTDELEIIDEYIKENGFGLDGGQPGPGEGLPRLVSRGAASLSTVTLGPVAPPATPPPWGCPLGRLVSPAPGPGPQPHLVITEQPKQRGMRFRYECEGRSAGSILGESSTEASKTLPAIELRDCGGLREVEVTACLVWKDWPHRVHPHSLVGKDCTDGICRVRLRPHVSPRHSFNNLGIQCVRKKEIEAAIERKIQLGIDPYNAGSLKNHQEVDMNVVRICFQASYRDQQGQMRRMDPVLSEPVYDKKSTNTSELRICRINKESGPCTGGEELYLLCDKVQKEDISVVFSRASWEGRADFSQADVHRQIAIVFKTPPYEDLEIVEPVTVNVFLQRLTDGVCSEPLPFTYLPRDHDSYGVDKKRKRGMPDVLGELNSSDPHGIESKRRKKKPAILDHFLPNHGSGPFLPPSALLPDPDFFSGTVSLPGLEPPGGPDLLDDGFAYDPTAPTLFTMLDLLPPAPPHASAVVCSGGAGAVVGETPGPEPLTLDSYQAPGPGDGGTASLVGSNMFPNHYREAAFGGGLLSPGPEAT
[2]
  binding result: no binding

B3: c-Rel (other, human, UniProt Q04864 2-619, looked up)
chain: ASGAYNPYIEIIEQPRQRGMRFRYKCEGRSAGSIPGEHSTDNNRTYPSIQIMNYYGKGKVRITLVTKNDPYKPHPHDLVGKDCRDGYYEAEFGQERRPLFFQNLGIRCVKKKEVKEAIITRIKAGINPFNVPEKQLNDIEDCDLNVVRLCFQVFLPDEHGNLTTALPPVVSNPIYDNRAPNTAELRICRVNKNCGSVRGGDEIFLLCDKVQKDDIEVRFVLNDWEAKGIFSQADVHRQVAIVFKTPPYCKAITEPVTVKMQLRRPSDQEVSESMDFRYLPDEKDTYGNKAKKQKTTLLFQKLCQDHVETGFRHVDQDGLELLTSGDPPTLASQSAGITVNFPERPRPGLLGSIGEGRYFKKEPNLFSHDAVVREMPTGVSSQAESYYPSPGPISSGLSHHASMAPLPSSSWSSVAHPTPRSGNTNPLSSFSTRTLPSNSQGIPPFLRIPVGNDLNASNACIYNNADDIVGMEASSMPSADLYGISDPNMLSNCSVNMMTTSSDSMGETDNPRLLSMNLENPSCNSVLDPRDLRQLHQMSSSSMSAGANSNTTVFVSQSDAFEGSDFSCADNSMINESGPSNSTNPNSHGFVQDSQYSGIGSMQNEQLSDSFPYEFFQV
[2]
  binding result: no binding
